Test results: PubChem BioAssay (NCI)
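A five-concentration, 48-hour dose response in 96-well plates underlies each endpoint, interpolated linearly between surrounding concentrations. TGI: total growth inhibition.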

What was measured:
Experiment in all cases: inhibition of tumour cell growth, NCI panel, 48 h
ACHN renal = tested on: ACHN renal
BT-549 breast = tested on: BT-549 breast
COLO 205 colon = tested on: COLO 205 colon
HT29 colon = tested on: HT29 colon
MDA-MB-435 = tested on: MDA-MB-435
PC-3 prostate = tested on: PC-3 prostate
RXF 393 renal = tested on: RXF 393 renal
SW-620 colon = tested on: SW-620 colon
SN12C renal = tested on: SN12C renal
LOX IMVI melanoma = tested on: LOX IMVI melanoma

Row | Compound | TGI (ACHN renal) [µM] | TGI (BT-549 breast) [µM] | TGI (COLO 205 colon) [µM] | TGI (HT29 colon) [µM] | TGI (MDA-MB-435) [µM] | TGI (PC-3 prostate) [µM] | TGI (RXF 393 renal) [µM] | TGI (SW-620 colon) [µM] | TGI (SN12C renal) [µM] | TGI (LOX IMVI melanoma) [µM]
1 | Cc1cc(-c2[nH]c(C(=O)O)cc2I)on1 | > 100 | > 100 | > 100 | > 100 | > 100 | > 100 | > 100 | > 100 | – | –
2 | O=C(/C=C/c1cccc(Br)c1)c1cccs1 | 39.8 | – | 46 | 25.3 | 25.5 | 31.6 | – | 27.5 | 31.1 | –
3 | COc1ccc2[nH]c(Cl)c(/C=C3/C(=O)Nc4cc(C)c(OC)cc43)c2c1 | 21.4 | 21.5 | 5.9 | 15 | 3.51 | 16.1 | 27.9 | 18.1 | 20.1 | 17.5
4 | COC(=O)C(C)(N=Cc1ccccc1)c1ccccc1 (stereo not drawn) | > 100 | – | > 100 | > 100 | > 100 | > 100 | > 100 | > 100 | > 100 | > 100
5 | ClC(Cl)(Cl)C1=N[C@H]2[C@H](Br)[C@@H]3O[C@@H](c4ccccc4)[C@H](c4ccccc4)O[C@@H]3[C@H]2O1 | 31.3 | 53 | 30 | 58.1 | 42.4 | 30.4 | 45.4 | 44.8 | 37.2 | 33.3
6 | CCOC(=O)N1CCN(c2ccc3c(C)cc(C)nc3n2)CC1 | > 100 | > 100 | > 100 | > 100 | > 100 | > 100 | > 100 | > 100 | > 100 | > 100
7 | CCC1C(c2cccc(OC)c2O)c2cc3c(cc2OC1N1CCCC1)OCO3 (stereo not drawn) | 84.3 | – | – | 37.5 | 15.9 | 89.2 | – | 58.8 | 38.3 | 84.6
8 | CN(C(=O)Cc1ccc(Cl)c(Cl)c1)[C@H]1CCCC[C@@H]1[N+]1(C)CCCC1 | > 100 | > 100 | > 100 | > 100 | > 100 | > 100 | – | > 100 | > 100 | > 100
9 | Cn1c(C(C#N)c2nc(Cl)ncc2Br)nc2ccccc21 (stereo not drawn) | > 100 | > 100 | > 100 | > 100 | > 100 | – | > 100 | > 100 | > 100 | > 100
10 | COc1ccccc1C1SCC(=O)N1c1ccc(-c2ccc(-n3c(-c4ccccc4)nc4ccccc4c3=O)cc2)cc1 (stereo not drawn) | > 100 | > 100 | > 100 | > 100 | > 100 | > 100 | – | > 100 | > 100 | > 100
11 | Cc1ccc(OCC2OC(n3cnc4c(N(C)C)nc(Br)nc43)CC2Oc2ccc(C)cc2)cc1 (stereo not drawn) | > 100 | > 100 | > 100 | > 100 | > 100 | > 100 | – | > 100 | > 100 | > 100
12 | COC(=O)/C=C(\C)C(=O)N(C)c1ccccc1I | > 100 | – | > 100 | – | > 100 | > 100 | > 100 | > 100 | > 100 | > 100
13 | Cc1ccsc1/C=N/Nc1cc(C)c2cccc(C)c2n1 | > 100 | > 100 | > 100 | > 100 | > 100 | > 100 | – | > 100 | > 100 | –
14 | CC(C)[C@@H]1CC[C@@H](C)C[C@H]1OC(=O)/C=C1/C2C=CC(O2)C1C(=O)O[C@@H]1C[C@H](C)CC[C@H]1C(C)C (stereo partly drawn) | > 100 | – | > 100 | > 100 | > 100 | > 100 | > 100 | > 100 | > 100 | > 100
15 | FC(F)(F)c1ccccc1N1CCN(c2nc(-c3cccs3)nc3ccc(Br)cc23)CC1 | > 100 | > 100 | 65.1 | > 100 | 63.3 | 49.5 | – | > 100 | > 100 | > 100
16 | Cc1ccc(S(=O)(=O)/N=C(\NN)Nc2ccc(Cl)cc2)cc1 | > 100 | > 100 | > 100 | > 100 | – | > 100 | > 100 | > 100 | > 100 | > 100
17 | Cc1cc(O)c2c(c1O)C(=O)C13C(=C2O)C(=O)C2C(O)C1C1C(O)C3C(=O)C3=C(O)c4c(O)cc(C)c(O)c4C(=O)C321 (stereo not drawn) | – | – | 0.112 | 0.406 | – | – | 0.295 | 0.313 | – | 1.46
18 | O=C(Nc1nc2ccccc2n1Cc1ccccc1)NC12CC3CC(CC(C3)C1)C2 | > 100 | – | > 100 | > 100 | – | – | 93.8 | > 100 | > 100 | > 100
19 | O=C1O/C(=C(\Br)c2cccc3ccccc23)c2ccccc21 | > 55.1 | – | > 53.8 | 56.3 | – | – | > 62.8 | > 58.3 | 47.2 | > 100
20 | O=C(CN1CCN(Cc2ccccc2)CC1)N1CCCn2c1nc1ccccc1c2=O | > 100 | > 100 | > 100 | > 100 | > 100 | > 100 | – | > 100 | > 100 | > 100
21 | COc1ccc(S(=O)(=O)O)cc1-n1nc(C(=O)Nc2ccccc2)n[n+]1-c1cc(S(=O)(=O)[O-])ccc1OC | > 100 | – | > 100 | > 100 | > 100 | > 100 | > 100 | > 100 | > 100 | –
22 | COC(=O)C(CCc1ccccc1I)C1=CCC2(CC1)OCCO2 (stereo not drawn) | > 100 | – | > 100 | > 100 | 87.7 | > 100 | 67.2 | > 100 | – | > 100
23 | O=c1[nH]nc(-c2ccccc2)n1/N=C/c1c[nH]c2ccccc12 | > 100 | – | > 100 | > 100 | > 100 | > 100 | > 100 | > 100 | > 100 | > 100
